Among the test systems are HOP-92 NSCLC; A549 NSCLC; HCT-116 colon; U251 CNS; M14 melanoma; UACC-62 melanoma; ACHN renal; SNB-19 CNS.
Holding throughout (experiment): NCI tumour cell line growth inhibition, 48 h

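Step 1: Grow cells in 96-well plates. Step 2: Expose to compound for 48 hours at 5 concentrations. Step 3: Interpolate endpoints linearly; if unreached, use highest concentration. GI50 marks 50% less growth. The concentration for full growth arrest is given as TGI.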 A value given as a limit tells only on which side of the number the result lay.

For the molecule `O=[N+]([O-])c1cc(Cl)cc2c1nc(NCCO)c1ccccc12`, the TGI was > 88 µM in the assay on HOP-92 NSCLC; > 100 µM in the assay on A549 NSCLC; > 100 µM with HCT-116 colon; > 100 µM in the assay on U251 CNS; > 100 µM in the assay on M14 melanoma; > 60 µM with UACC-62 melanoma. In addition, the TGI with ACHN renal and in the assay on SNB-19 CNS was > 100 µM throughout.

As for `CCOC(=O)CNC(=O)CCCn1c(=O)c2c3ccccc3n(C)c2n2nnc(-c3ccccc3)c12`, the GI50 is 3.6 µM in the assay with HOP-92 NSCLC; 32.8 µM in the assay with A549 NSCLC; 9.04 µM in the assay on HCT-116 colon; 4.14 µM with U251 CNS; 18.7 µM in the assay on M14 melanoma; 7.2 µM in the assay on UACC-62 melanoma. Also, the GI50 in the assay on ACHN renal is 9.24 µM; in the assay on SNB-19 CNS, 5.83 µM. The TGI with HOP-92 NSCLC was 14.8 µM; in the assay on A549 NSCLC, > 50 µM; in the assay on HCT-116 colon, 27.3 µM; in the assay on U251 CNS, 14.6 µM; with M14 melanoma, > 50 µM; in the assay on UACC-62 melanoma it was 21.8 µM. For the same molecule, the TGI in the assay with ACHN renal was 33.7 µM; in the assay with SNB-19 CNS, 22.7 µM.

Consider `Oc1ccc(Br)cc1/C=N/NC(=S)NC12CC3CC(CC(C3)C1)C2`, for which the GI50 in the assay on HOP-92 NSCLC is 2.35 µM; in the assay on A549 NSCLC, 1.82 µM; with HCT-116 colon, 1.57 µM; with U251 CNS, 1.32 µM; in the assay with M14 melanoma, 1.86 µM; with UACC-62 melanoma, 2.37 µM. Also, the GI50 with ACHN renal was 2.08 µM; in the assay on SNB-19 CNS, 2.87 µM. The TGI with HOP-92 NSCLC was found to be 6.58 µM; in the assay on A549 NSCLC, 5.07 µM; in the assay on HCT-116 colon, 4.57 µM; in the assay with U251 CNS, 2.71 µM; in the assay with M14 melanoma, 5.84 µM; with UACC-62 melanoma, 7.83 µM. Moreover, the TGI in the assay on ACHN renal turned out to be 10.3 µM; in the assay with SNB-19 CNS, 12.4 µM.

As for `CCN(Cc1nc2cc(C(F)(F)F)ccc2nc1-c1ccccc1)c1ccc(OC)c(OC)c1`, the GI50 in the assay on HOP-92 NSCLC was 15 µM; in the assay with A549 NSCLC it was 0.369 µM; in the assay with HCT-116 colon it was 11.1 µM; in the assay with U251 CNS, 6.49 µM; in the assay on M14 melanoma, 15.4 µM; in the assay on UACC-62 melanoma, 14.1 µM. Besides, the GI50 with ACHN renal was 16.4 µM; in the assay with SNB-19 CNS it was 24.6 µM. The TGI in the assay on HOP-92 NSCLC was found to be 30.4 µM; in the assay on A549 NSCLC it was 16.3 µM; with HCT-116 colon, 23.2 µM; in the assay on U251 CNS, 19.1 µM; in the assay on M14 melanoma, 29.5 µM; in the assay on UACC-62 melanoma, 27.7 µM. The figures for the TGI with ACHN renal and in the assay with SNB-19 CNS were 44 µM and 50.4 µM, respectively.

As for `CCCC[P+](c1ccccc1)(c1ccccc1)c1ccccc1`, the GI50 in the assay with HOP-92 NSCLC is 0.675 µM; in the assay with A549 NSCLC it was 4.4 µM; in the assay with HCT-116 colon, 2.87 µM; in the assay with U251 CNS it was 2.34 µM; with M14 melanoma, 6.79 µM; in the assay on UACC-62 melanoma, 1.9 µM. Further, the GI50 in the assay on ACHN renal is 29 µM; in the assay on SNB-19 CNS, 3.6 µM. In addition, the TGI in the assay on HOP-92 NSCLC was 6.58 µM; in the assay on A549 NSCLC, > 100 µM; with HCT-116 colon, > 100 µM; with U251 CNS, > 100 µM; in the assay on M14 melanoma it was > 100 µM; with UACC-62 melanoma, > 100 µM. In addition, the TGI in the assay with ACHN renal and in the assay on SNB-19 CNS was > 100 µM throughout.

In the case of `COC(=O)c1c2c(c(C)[n+]([O-])c1C)C(=O)C(NCc1cccc(OC)c1)=CC2=O`, the GI50 with HOP-92 NSCLC is 2.75 µM; in the assay on A549 NSCLC it was 2.35 µM; in the assay on HCT-116 colon, 2.53 µM; with U251 CNS, 2.65 µM; in the assay on M14 melanoma, 1.79 µM; with UACC-62 melanoma, 1.7 µM. In addition, the GI50 with ACHN renal was 2.84 µM; with SNB-19 CNS, 2.42 µM. The TGI in the assay with HOP-92 NSCLC is 6.57 µM; with A549 NSCLC, 9.36 µM; in the assay with HCT-116 colon, 10 µM; in the assay on U251 CNS it was 10.6 µM; in the assay with M14 melanoma it was 3.72 µM; with UACC-62 melanoma, 3.48 µM. The TGI with ACHN renal turned out to be 10.2 µM; with SNB-19 CNS it was 7 µM.

On to `CCOC(=O)c1cc2cc(NC(=O)c3cc4cc([N+](=O)[O-])ccc4n3C)ccc2n1C`, for which the GI50 in the assay with HOP-92 NSCLC is 34.9 µM; with A549 NSCLC, 21.7 µM; in the assay with HCT-116 colon it was 14.6 µM; in the assay on U251 CNS, 14.1 µM; in the assay with M14 melanoma it was 34.7 µM; in the assay on UACC-62 melanoma, 12.3 µM. Moreover, the GI50 was 13.5 µM in the assay on ACHN renal and 22.7 µM in the assay with SNB-19 CNS. In addition, the TGI in the assay with HOP-92 NSCLC is 85 µM; in the assay on A549 NSCLC, 55.6 µM; with HCT-116 colon, 30.3 µM; in the assay with U251 CNS it was 30.9 µM; in the assay on M14 melanoma, > 100 µM; with UACC-62 melanoma it was 27.1 µM. Moreover, the TGI in the assay with ACHN renal is 31.9 µM; in the assay with SNB-19 CNS, > 100 µM.

Consider `O=C(c1ccco1)c1c(C(F)(F)F)nc2cc(C(F)(F)F)ccc2[n+]1[O-]`, for which the GI50 with HOP-92 NSCLC is 16.5 µM; with A549 NSCLC, 48.4 µM; in the assay with HCT-116 colon it was 33.4 µM; in the assay with U251 CNS it was 34.7 µM; with M14 melanoma, > 100 µM; in the assay on UACC-62 melanoma it was > 100 µM. Further, the GI50 is 82.1 µM with ACHN renal and 40.7 µM in the assay with SNB-19 CNS. Further, the TGI was 68.8 µM in the assay with HOP-92 NSCLC; > 100 µM in the assay on A549 NSCLC; > 100 µM in the assay on HCT-116 colon; > 100 µM with U251 CNS; > 100 µM in the assay with M14 melanoma; > 100 µM in the assay on UACC-62 melanoma. Also, the TGI in the assay on ACHN renal and in the assay on SNB-19 CNS was > 100 µM in each case.

As for `CCCCSCc1nc2nc(Cl)c(Cl)nc2[nH]1`, the TGI in the assay with HOP-92 NSCLC is > 100 µM; with A549 NSCLC, > 100 µM; with HCT-116 colon, 40.6 µM; with U251 CNS, 55.6 µM; in the assay with M14 melanoma, 66.6 µM; in the assay on UACC-62 melanoma it was 29.5 µM. The TGI in the assay on ACHN renal is 71.5 µM; in the assay on SNB-19 CNS it was > 100 µM.

For the origin of these results see PubChem BioAssay (NCI).
